The numbers were not newly measured in US20100152480A1 (priority 2008, published 2010), which cites them from elsewhere.

Data set [1] has as its system gram positive bacteria (Arthrobacter oxydans, Bacillus cereus var mycoide, Bacillus subtilis, Bacillus megaterium, Clostridium perfringens, Listeria …). The conditions noted are these: listed gram positive species; known from prior art.
For data set [2] the following is noted: 20° C.
For data set [3], the system named is gram negative bacteria (Alcaligenes faecalis, Bordetella bronchiseptica, Citrobacter freundii, Citrobacter intermedium, Enterobacter aerogenes, Escherichia …). As to conditions: listed gram negative species; known from prior art.
The test system of data set [4] is moulds and yeast (Aspergillus niger, Aureobasidium pullulans, Cladosporium cladosporioides, Gliocadium virens, Chaetonium globosum, Penicillium chrysogenum …). As to conditions: listed moulds and yeasts; known from prior art.

As for “ethyl-Na-dodecanoyl-Larginate HCl [Ethyl lauroyl arginate]”, the “effectiveness against gram positive bacteria” value in data set [1] is given as “effective”. Besides, the solubility in water entry in data set [2] is given as “greater than 247 g/kg”. Also, in data set [3], the “effectiveness against gram negative bacteria” value is “effective”. For the same substance, in data set [4], the “effectiveness against moulds and yeast” value was “effective”.
